According to PubChem BioAssay (NCI):
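Each compound was tested at five concentrations against cells in 96-well plates for 48 hours. TGI marks complete inhibition of growth.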

Experiments:
Assay in all cases: inhibition of tumour cell growth, NCI panel, 48 h
UO-31 renal = tested on: UO-31 renal
NCI/ADR-RES ovarian = tested on: NCI/ADR-RES ovarian
RPMI-8226 leukemia = tested on: RPMI-8226 leukemia
U251 CNS = tested on: U251 CNS
HCT-116 colon = tested on: HCT-116 colon
UACC-257 melanoma = tested on: UACC-257 melanoma
SK-OV-3 ovarian = tested on: SK-OV-3 ovarian
DU-145 prostate = tested on: DU-145 prostate
CAKI-1 renal = tested on: CAKI-1 renal
OVCAR-5 ovarian = tested on: OVCAR-5 ovarian
MOLT-4 leukemia = tested on: MOLT-4 leukemia
T-47D breast = tested on: T-47D breast
NCI-H460 lung = tested on: NCI-H460 lung
M14 melanoma = tested on: M14 melanoma
BT-549 breast = tested on: BT-549 breast
SW-620 colon = tested on: SW-620 colon
HOP-92 NSCLC = tested on: HOP-92 NSCLC
NCI-H522 lung = tested on: NCI-H522 lung
SNB-75 CNS = tested on: SNB-75 CNS
SF-539 CNS = tested on: SF-539 CNS
SF-268 CNS = tested on: SF-268 CNS
IGROV1 ovarian = tested on: IGROV1 ovarian
MDA-MB-231 breast = tested on: MDA-MB-231 breast
A498 renal = tested on: A498 renal
MALME-3M melanoma = tested on: MALME-3M melanoma
OVCAR-8 ovarian = tested on: OVCAR-8 ovarian
MDA-N = tested on: MDA-N
ACHN renal = tested on: ACHN renal
SK-MEL-5 melanoma = tested on: SK-MEL-5 melanoma
UACC-62 melanoma = tested on: UACC-62 melanoma
HCT-15 colon = tested on: HCT-15 colon
NCI-H226 lung = tested on: NCI-H226 lung
HCC-2998 colon = tested on: HCC-2998 colon
COLO 205 colon = tested on: COLO 205 colon
K-562 leukemia = tested on: K-562 leukemia
HT29 colon = tested on: HT29 colon
MCF7 breast = tested on: MCF7 breast
KM12 colon = tested on: KM12 colon
HS 578T breast = tested on: HS 578T breast
TK-10 renal = tested on: TK-10 renal
SNB-19 CNS = tested on: SNB-19 CNS
SR leukemia = tested on: SR leukemia
SN12C renal = tested on: SN12C renal
SK-MEL-28 melanoma = tested on: SK-MEL-28 melanoma
MDA-MB-435 = tested on: MDA-MB-435
PC-3 prostate = tested on: PC-3 prostate
OVCAR-4 ovarian = tested on: OVCAR-4 ovarian
786-0 renal = tested on: 786-0 renal
HOP-62 NSCLC = tested on: HOP-62 NSCLC
EKVX NSCLC = tested on: EKVX NSCLC
RXF 393 renal = tested on: RXF 393 renal
SF-295 CNS = tested on: SF-295 CNS
OVCAR-3 ovarian = tested on: OVCAR-3 ovarian
SK-MEL-2 melanoma = tested on: SK-MEL-2 melanoma
A549 NSCLC = tested on: A549 NSCLC
NCI-H23 lung = tested on: NCI-H23 lung
HL-60(TB) leukemia = tested on: HL-60(TB) leukemia
LOX IMVI melanoma = tested on: LOX IMVI melanoma
CCRF-CEM leukemia = tested on: CCRF-CEM leukemia

O=C1c2ccccc2C(=O)c2c(NC(=O)c3ccc4c5c(ncnc35)-c3ccccc3C4=O)cccc21
TGI (UO-31 renal): > 100 µM
TGI (NCI/ADR-RES ovarian): > 100 µM
TGI (RPMI-8226 leukemia): > 100 µM
TGI (U251 CNS): > 100 µM
TGI (HCT-116 colon): > 100 µM
TGI (UACC-257 melanoma): > 100 µM
TGI (SK-OV-3 ovarian): 48.2 µM
TGI (DU-145 prostate): > 100 µM
TGI (CAKI-1 renal): > 100 µM
TGI (OVCAR-5 ovarian): > 100 µM
TGI (MOLT-4 leukemia): > 100 µM
TGI (T-47D breast): > 100 µM
TGI (NCI-H460 lung): > 100 µM
TGI (M14 melanoma): > 100 µM
TGI (BT-549 breast): > 100 µM
TGI (SW-620 colon): > 100 µM
TGI (HOP-92 NSCLC): > 100 µM
TGI (NCI-H522 lung): > 100 µM
TGI (SNB-75 CNS): 58.5 µM
TGI (SF-539 CNS): > 100 µM
TGI (SF-268 CNS): > 100 µM
TGI (IGROV1 ovarian): > 100 µM
TGI (MDA-MB-231 breast): > 100 µM
TGI (A498 renal): > 100 µM
TGI (MALME-3M melanoma): > 100 µM
TGI (OVCAR-8 ovarian): > 100 µM
TGI (MDA-N): > 100 µM
TGI (ACHN renal): > 100 µM
TGI (SK-MEL-5 melanoma): > 100 µM
TGI (UACC-62 melanoma): > 100 µM
TGI (HCT-15 colon): > 100 µM
TGI (NCI-H226 lung): > 100 µM
TGI (HCC-2998 colon): > 100 µM
TGI (COLO 205 colon): > 100 µM
TGI (K-562 leukemia): > 100 µM
TGI (HT29 colon): > 100 µM
TGI (MCF7 breast): > 100 µM
TGI (KM12 colon): > 100 µM
TGI (HS 578T breast): > 100 µM
TGI (TK-10 renal): 47.6 µM
TGI (SNB-19 CNS): > 100 µM
TGI (SR leukemia): > 100 µM
TGI (SN12C renal): > 100 µM
TGI (SK-MEL-28 melanoma): > 100 µM
TGI (MDA-MB-435): > 100 µM
TGI (PC-3 prostate): > 100 µM
TGI (OVCAR-4 ovarian): > 100 µM
TGI (786-0 renal): 84.7 µM
TGI (HOP-62 NSCLC): 42.7 µM
TGI (EKVX NSCLC): > 100 µM
TGI (RXF 393 renal): 49.1 µM
TGI (SF-295 CNS): 64 µM
TGI (OVCAR-3 ovarian): > 100 µM
TGI (SK-MEL-2 melanoma): > 100 µM
TGI (A549 NSCLC): > 100 µM
TGI (NCI-H23 lung): > 100 µM

Cc1cc2c(=O)[nH]nc(N)c2c(N)n1
TGI (UO-31 renal): > 100 µM
TGI (NCI/ADR-RES ovarian): > 100 µM
TGI (RPMI-8226 leukemia): > 100 µM
TGI (U251 CNS): > 100 µM
TGI (HCT-116 colon): > 100 µM
TGI (UACC-257 melanoma): > 100 µM
TGI (SK-OV-3 ovarian): > 100 µM
TGI (DU-145 prostate): > 100 µM
TGI (CAKI-1 renal): > 100 µM
TGI (OVCAR-5 ovarian): > 100 µM
TGI (HL-60(TB) leukemia): > 100 µM
TGI (MOLT-4 leukemia): > 100 µM
TGI (T-47D breast): > 100 µM
TGI (NCI-H460 lung): > 100 µM
TGI (M14 melanoma): > 100 µM
TGI (LOX IMVI melanoma): > 100 µM
TGI (BT-549 breast): > 100 µM
TGI (SW-620 colon): > 100 µM
TGI (HOP-92 NSCLC): > 100 µM
TGI (NCI-H522 lung): > 100 µM
TGI (SF-268 CNS): > 100 µM
TGI (IGROV1 ovarian): > 100 µM
TGI (MDA-MB-231 breast): > 100 µM
TGI (A498 renal): > 100 µM
TGI (MALME-3M melanoma): > 100 µM
TGI (OVCAR-8 ovarian): > 100 µM
TGI (MDA-N): > 100 µM
TGI (ACHN renal): > 100 µM
TGI (SK-MEL-5 melanoma): > 100 µM
TGI (UACC-62 melanoma): > 100 µM
TGI (HCT-15 colon): > 100 µM
TGI (NCI-H226 lung): > 100 µM
TGI (HCC-2998 colon): > 100 µM
TGI (COLO 205 colon): > 100 µM
TGI (K-562 leukemia): > 100 µM
TGI (HT29 colon): > 100 µM
TGI (MCF7 breast): > 100 µM
TGI (KM12 colon): > 100 µM
TGI (HS 578T breast): > 100 µM
TGI (TK-10 renal): > 100 µM
TGI (SNB-19 CNS): > 100 µM
TGI (SR leukemia): > 100 µM
TGI (CCRF-CEM leukemia): > 100 µM
TGI (SN12C renal): > 100 µM
TGI (SK-MEL-28 melanoma): > 100 µM
TGI (MDA-MB-435): > 100 µM
TGI (PC-3 prostate): > 100 µM
TGI (OVCAR-4 ovarian): > 100 µM
TGI (786-0 renal): > 100 µM
TGI (HOP-62 NSCLC): > 100 µM
TGI (EKVX NSCLC): > 100 µM
TGI (RXF 393 renal): > 100 µM
TGI (SF-295 CNS): > 100 µM
TGI (SK-MEL-2 melanoma): > 100 µM
TGI (A549 NSCLC): > 100 µM
TGI (NCI-H23 lung): > 100 µM
